# How the values were obtained:
# nNOS [1] = assay: Western blot of nNOS knockdown in cultured nNOS shRNA-transfected U87 cells; type: cell-based, human
# Method: U87MG (American Type Culture Collection HTB-14) and GL261 (generous gift from Dr. G. Yancey Gillespie at University of Alabama) tumor cells were cultured in Dulbecco's Modified Eagle's Medium with 10% fetal bovine serum at 37° C. in a humidified 5% CO2 incubator. The following short-hairpin RNAs (shRNAs) for nNOS were designed using a commercial service program for small interfering RNA (siRNA) target finder (http://www.ambion.com/techlib/misc/siRNA_finder.html): nNOS-shRNA58, CAAAGAGATCGACACCATC (sense), […] (antisense); nNOSshRNA97, CACGCATGTCTGGAAAGGC (sense), […](antisense); nNOS-shRNA150, GGTCTATCCAATGTCCACA (sense), […] (antisense). The DNA oligonucleotides consist of a 19-nucleotide sense siRNA sequence linked to its reverse complementary antisense siRNA sequence by a short spacer (TTCAAGAGA).
# Each DNA oligonucleotide was prepared with nucleotide overhangs with BamHI and HindIII restriction sites added to the 5′ and 3′ end of the DNA oligonucleotides and subcloned into the pSilencer 3.1 H-1-hygro (Ambion) that allows transcription of the shRNA. These expression vectors were stably transfected into U87MG cells using LipofectAMINE 2000 (Invitrogen) following the manufacturer's instruction.
# The stably transfected cells were selected with 80 μg/ml of hygromycin B. The expression of nNOS protein in U87 tumor cells and tissues was determined by'Western blot analysis. […]
# Equal amounts of 60 micrograms of protein per sample were separated on 7.5% SDS polyacrylamide gels, transferred onto polyvinylidene fluoride membrane (Millipore), incubated with primary antibodies followed by secondary antibodies (the same antibodies used in immunohistochemistry studies. See Immunohistochemistry methods below), and detected using enhanced chemiluminescence (GE Healthcare) by exposure on autoradiography films (Kodak) (Xu, L., et al. 2005 Cancer Res. 65, 5711-5719; Canneliet, P., et al. 1998 Nature 394, 485-490; Xu, L., et al. 2002 Journal of Biological Chemistry 277, 11368-11374 (2002); and Xu, L., et al. 2004 Clinical Cancer Research 10, 701-707). […]
# nNOS [2] = assay: Western blot of nNOS knockdown in U87 tumors grown in cranial windows; type: in vivo; settings: U87 tumors in cranial windows in Rag-1-/- mice
# Method: The stably transfected cells were selected with 80 μg/ml of hygromycin B. The expression of nNOS protein in U87 tumor cells and tissues was determined by'Western blot analysis. Cultured U87MG cells washed with PBS and U87MG tumors homogenized by a tissue grinder were solubilized in 40 mM Tris-HCl, pH 6.8, 2% SDS, 10% glycerol, 1% β-mercaptoethanol, 0.01% bromophenol blue with one Complete Mini Protease Inhibitor Cocktail tablet (Roche Diagnostics) per 50 ml buffer.
# Equal amounts of 60 micrograms of protein per sample were separated on 7.5% SDS polyacrylamide gels, transferred onto polyvinylidene fluoride membrane (Millipore), incubated with primary antibodies followed by secondary antibodies (the same antibodies used in immunohistochemistry studies. See Immunohistochemistry methods below), and detected using enhanced chemiluminescence (GE Healthcare) by exposure on autoradiography films (Kodak) (Xu, L., et al. 2005 Cancer Res. 65, 5711-5719; Canneliet, P., et al. 1998 Nature 394, 485-490; Xu, L., et al. 2002 Journal of Biological Chemistry 277, 11368-11374 (2002); and Xu, L., et al. 2004 Clinical Cancer Research 10, 701-707).
# Recombination activating gene 1 (Rag-1^−/−) mice backcrossed to C57BL/6 background or severe combined immunodeficiency (SCID) mice, bred and maintained in an gnotobiotic animal facility, were used. To obtain source tumor tissue, U87 tumor cells in culture (1×10^6 cells) were injected subcutaneously into Rag-1^−/− or SCID mice matching the recipient mice. When the tumor reached about 8 mm in diameter, it was excised after euthanasia and a small piece (about 1 mm^3) of viable tumor tissue was implanted into a cranial window or subcutaneously into the calf area of the right hindlegs of the mice as previously described (Kashiwagi, S., et al. 2005 J. Clin. Invest. 115, 1816-1827; Kozin, S. V., et al. 2001 Cancer Research 61, 39-44). […]
# U87 with nNOS shRNA (shRNA58, shRNA97, and shRNA150) were grown in cranial windows in Rag-1^−/− mice. Expression of nNOS in these tumors was determined by Western blot analysis. […]
Substance,Knockdown efficiency of nNOS in vitro (nNOS [1]),Knockdown efficiency of nNOS in vivo (nNOS [2])
"shRNA150: short-hairpin RNA for nNOS, GGTCTATCCAATGTCCACA (sense), TGTGGACATTGGATAGACCTT (antisense), in pSilencer 3.1 H-1-hygro",99%,96%
"shRNA58: short-hairpin RNA for nNOS, CAAAGAGATCGACACCATC (sense), GATGGTGTCGATCTCTTTGTT (antisense), in pSilencer 3.1 H-1-hygro, stably transfected into U87MG",99%,98%
